Test [1] concerns HCV sub-genomic replicon, GS4.3 (HuH-7 hepatoma cells). Briefly: Quantitation by ELISA of NPTII in the HCV sub-genomic replicon, GS4.3. The test is classed as cell-based. The conditions noted are these: Hepatitis C virus, GS4.3 replicon cells, 72 h incubation. A digest of the protocol:
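HuH-7 cells carrying the 1377/NS3-3′ subgenomic replicon were seeded 24 h ahead, then treated in G418-free medium with 3-fold dilutions from 10 μM (1% DMSO, duplicates) for 72 h at 37 °C, 5% CO2. NPTII in lysates was measured by ELISA (TMB, 450 nm). EC50 came from a 4-parameter fit of percent DMSO-control signal.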

For test [2], the target named is T1, full-length NS3/NS4A-2 (HCV NS3 protease) (Hepatitis C virus genotype 1b, UniProt Q9WMX2).
T1 construct: Recombinant E. coli or Baculovirus full-length NS3; host or cells: E. coli or baculovirus (BV) expression
T1 sequence (Q9WMX2 1027-1657): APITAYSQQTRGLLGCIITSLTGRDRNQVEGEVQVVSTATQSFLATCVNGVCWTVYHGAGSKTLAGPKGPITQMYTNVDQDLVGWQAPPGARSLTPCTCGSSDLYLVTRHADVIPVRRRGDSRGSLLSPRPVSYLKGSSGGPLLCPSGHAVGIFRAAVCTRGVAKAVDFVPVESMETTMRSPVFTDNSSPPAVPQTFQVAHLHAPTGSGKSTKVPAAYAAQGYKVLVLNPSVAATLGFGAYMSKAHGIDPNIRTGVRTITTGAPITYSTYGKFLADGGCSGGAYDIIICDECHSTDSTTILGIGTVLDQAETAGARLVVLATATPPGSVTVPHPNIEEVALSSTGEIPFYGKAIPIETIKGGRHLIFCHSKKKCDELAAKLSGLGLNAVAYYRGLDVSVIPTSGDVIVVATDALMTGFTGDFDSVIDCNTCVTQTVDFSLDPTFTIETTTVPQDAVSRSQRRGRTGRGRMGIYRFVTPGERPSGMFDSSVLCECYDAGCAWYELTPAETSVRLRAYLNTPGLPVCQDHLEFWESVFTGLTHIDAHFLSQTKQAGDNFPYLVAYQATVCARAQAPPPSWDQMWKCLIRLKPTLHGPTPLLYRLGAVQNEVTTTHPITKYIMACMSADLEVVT
T1 sequence (Q9WMX2 1658-1711): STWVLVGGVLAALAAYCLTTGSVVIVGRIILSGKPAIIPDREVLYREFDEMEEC
Kind of test: NS3 Inhibition Assay (NS3-NS4 protease assay, RETS1 substrate). In kind it is biochemical. The conditions noted are these: NS3/NS4A-2 protease. A digest of the protocol: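 Full-length NS3 (E. coli 2 nM or baculovirus 3 nM) precomplexed with excess NS4A-2, preincubated 10 min at room temperature with compound (top 50 μM). Then 2 μM RETS1 FRET substrate added, fluorescence (ex 335/em 495 nm) read kinetically for 30 min. IC50 by 4-parameter fit, converted to Ki using Km 2.03 μM (E. coli) or 1.74 μM (BV).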

A value given as a limit tells only on which side of the number the result lay.

One may read the EC50 as the midpoint of the concentration-response curve. Low readings indicate higher potency in that assay, high ones lower potency in that assay. For orientation: IC50 means the concentration that gives 50% inhibition.

In test [1], `CC[C@@H]1C[C@]1(NC(=O)[C@@H]1C[C@@H](OC(=O)N2Cc3cccc(F)c3C2)CN1C(=O)[C@@H](Nc1cccc(C(=O)NCCN(C)C)c1)C(C)(C)C)C(=O)NS(=O)(=O)C1CC1` [Compound 13] yielded an EC50 above 1000 nM. Besides, the concentration for half-maximal inhibition (IC50) in test [2] was below 100 nM.

The compound `C=C[C@@H]1C[C@]1(NC(=O)[C@H]1Cc2cc(Oc3cccc(Cl)c3)ccc2CN1C(=O)[C@@H](Nc1cccc(C(F)(F)F)c1)C(C)(C)C)C(=O)NS(=O)(=O)C1(C)CC1` [Compound 22] came in with a concentration for a half-maximal effect (EC50) in test [1] above 1000 nM. In addition, the IC50 in test [2] was below 100 nM.

Compound `CC[C@@H]1C[C@]1(NC(=O)[C@@H]1C[C@@H](OC(=O)N2Cc3ccc(NCCN4CCOCC4)cc3C2)CN1C(=O)[C@@H](Nc1cc(F)cc(C(F)(F)F)c1)C(C)(C)C)C(=O)NS(=O)(=O)C1(C)CC1` [Compound 314] returned a 50% effective concentration (EC50) in test [1] below 100 nM. In addition, the 50% inhibitory concentration (IC50) in test [2] is below 100 nM.

In the case of `C=C[C@@H]1C[C@]1(NC(=O)[C@@H]1C[C@@H](Oc2cc(-c3nc(C(C)C)cs3)nc3c(C)c(OC)ccc23)CN1C(=O)[C@@H](Nc1cc(F)cc(C(F)(F)F)c1)C(C)(C)C)C(=O)NS(=O)(=O)C1(C)CC1` [Compound 334], the concentration for a half-maximal effect (EC50) in test [1] was below 100 nM. Further, the half-maximal inhibitory concentration (IC50) in test [2] is below 100 nM.

In test [1], `C=C[C@@H]1C[C@]1(NC(=O)[C@@H]1C[C@@H](Oc2cc(-c3nc(C(C)C)cs3)nc3c(C)c(OC)ccc23)CN1C(=O)[C@@H](Nc1cc(F)cc(OC(F)(F)F)c1)C(C)(C)C)C(=O)NS(=O)(=O)C1(C)CC1` [Compound 404] had an EC50 below 100 nM. The concentration for half-maximal inhibition (IC50) in test [2] is below 100 nM.

Take `CC[C@@H]1C[C@]1(NC(=O)[C@@H]1C[C@@H](OC(=O)N2Cc3ccc(NC(=O)COC)cc3C2)CN1C(=O)[C@@H](Nc1cc(F)cc(C(F)(F)F)c1)C(C)(C)C)C(=O)NS(=O)(=O)C1CC1` [Compound 19]: the EC50 in test [1] is below 100 nM. In test [2], this compound gave a half-inhibitory concentration (IC50) below 100 nM.

For `C=C[C@@H]1C[C@]1(NC(=O)[C@@H]1C[C@@H](OC(=O)N2Cc3cccc(F)c3C2)CN1C(=O)[C@@H](Nc1cc(F)cc(C(F)(F)F)c1)C(C)(C)C)C(=O)NS(=O)(=O)C1(C)CC1` [Compound 288], the EC50 in test [1] is below 100 nM. The 50% inhibitory concentration (IC50) in test [2] was below 100 nM.

Compound `CC(C)(C)[C@H](Nc1ccc(F)c(C(F)(F)F)c1)C(=O)N1C[C@H](OC(=O)N2Cc3cccc(Cl)c3C2)C[C@H]1C(=O)N[C@]1(C(=O)NS(=O)(=O)C2(C)CC2)C[C@H]1C1CC1` [Compound 310] showed an EC50 in test [1] below 100 nM. The IC50 in test [2] is below 100 nM.

Take `CC(C)(C)[C@H](Nc1cccc(C(F)(F)F)c1)C(=O)N1C[C@H](OC(=O)N2Cc3cccc(Cl)c3C2)C[C@H]1C(=O)N[C@]1(C(=O)NS(=O)(=O)C2(C)CC2)C[C@H]1C1CC1` [Compound 303]: in test [1], the EC50 is below 100 nM. The compound also came in with an IC50 in test [2] below 100 nM.

In test [1], `CC(C)(C)[C@H](Nc1ccc(F)c(C(F)(F)F)c1)C(=O)N1C[C@H](OC(=O)N2Cc3cccc(Cl)c3C2)C[C@H]1C(=O)N[C@]1(C(=O)NS(=O)(=O)C2CC2)C[C@H]1C1CC1` [Compound 294] displayed an EC50 below 100 nM. In test [2], this compound registered a half-inhibitory concentration (IC50) below 100 nM.

As to `CC[C@@H]1C[C@]1(NC(=O)[C@@H]1C[C@@H](Oc2cc(-c3nc(C(C)C)cs3)nc3c(C)c(OC)ccc23)CN1C(=O)[C@@H](Nc1cc(F)cc(C(F)(F)F)c1)C(C)(C)C)C(=O)NS(=O)(=O)C1CC1` [Compound 354], the EC50 in test [1] is below 100 nM. In test [2], this compound registered a half-maximal inhibitory concentration (IC50) below 100 nM.

`CC[C@@H]1C[C@]1(NC(=O)[C@@H]1C[C@@H](OC(=O)N2Cc3cccc(F)c3C2)CN1C(=O)[C@@H](Nc1cccc(C(=O)O)c1)C(C)(C)C)C(=O)NS(=O)(=O)C1CC1` [Compound 5] returned a concentration giving a half-maximal response (EC50) in test [1] above 1000 nM. The compound further had a 50% inhibitory concentration (IC50) in test [2] below 100 nM.

`CC[C@@H]1C[C@]1(NC(=O)[C@@H]1C[C@@H](OC(=O)N2Cc3cccc(F)c3C2)CN1C(=O)[C@@H](Nc1ccc(C(=O)N2CCOCC2)cc1)C(C)(C)C)C(=O)NS(=O)(=O)C1CC1` [Compound 11] showed a concentration giving a half-maximal response (EC50) in test [1] above 1000 nM. In test [2], this compound came in with a half-maximal inhibitory concentration (IC50) below 100 nM.

As to `CC[C@@H]1C[C@]1(NC(=O)[C@@H]1C[C@@H](Oc2cc(-c3nc(C(C)C)cs3)nc3c(C)c(OC)ccc23)CN1C(=O)[C@@H](Nc1ccccc1[N+](=O)[O-])C(C)(C)C)C(=O)NS(=O)(=O)C1CC1` [Compound 350], the concentration for a half-maximal effect (EC50) in test [1] was below 100 nM. This compound also came in with a concentration for half-maximal inhibition (IC50) in test [2] above 1000 nM.

Take `CC[C@@H]1C[C@]1(NC(=O)[C@@H]1C[C@@H](OC(=O)N2Cc3cccc(F)c3C2)CN1C(=O)[C@@H](Nc1cccc(C(=O)N2CCN(C)CC2)c1)C(C)(C)C)C(=O)NS(=O)(=O)C1CC1` [Compound 8]: the EC50 in test [1] is above 1000 nM. The compound also returned an IC50 in test [2] below 100 nM.

In the case of `C=C[C@@H]1C[C@]1(NC(=O)[C@@H]1Cc2cc(Oc3cccc(Cl)c3)ccc2CN1C(=O)[C@@H](Nc1cccc(C(F)(F)F)c1)C(C)(C)C)C(=O)NS(=O)(=O)C1CC1` [Compound 23], in test [1], the EC50 is above 1000 nM. In test [2], this compound displayed an IC50 below 100 nM.

On to `C=C[C@@H]1C[C@]1(NC(=O)[C@H]1Cc2cc(Oc3cccc(Cl)c3)ccc2CN1C(=O)[C@@H](Nc1cccc(C(F)(F)F)c1)C(C)(C)C)C(=O)NS(=O)(=O)C1CC1` [Compound 24], for which, in test [1], the EC50 is above 1000 nM. Besides, the IC50 in test [2] was below 100 nM.

On to `CC[C@@H]1C[C@]1(NC(=O)[C@@H]1C[C@@H](OC(=O)N2Cc3cccc(F)c3C2)CN1C(=O)[C@@H](Nc1ccc(C(=O)O)cc1)C(C)(C)C)C(=O)NS(=O)(=O)C1CC1` [Compound 3], for which the EC50 in test [1] was above 1000 nM. The IC50 in test [2] was below 100 nM.

Compound `CC[C@@H]1C[C@]1(NC(=O)[C@@H]1C[C@@H](OC(=O)N2Cc3cccc(F)c3C2)CN1C(=O)[C@@H](Nc1cccc(C(F)(F)F)c1)C(C)(C)C)C(=O)NS(=O)(=O)C1(C)CC1` [Compound 290] gave an EC50 in test [1] below 100 nM. Besides, in test [2], the IC50 was below 100 nM.

In turn, `CC[C@@H]1C[C@]1(NC(=O)[C@@H]1C[C@@H](Oc2cc(-c3nc(C(C)C)cs3)nc3c(C)c(OC)ccc23)CN1C(=O)[C@@H](Nc1ccc(F)c(C(F)(F)F)c1)C(C)(C)C)C(=O)NS(=O)(=O)N(C)C` [Compound 309] returned an EC50 in test [1] below 100 nM. Further, in test [2], the IC50 is below 100 nM.

`CC[C@@H]1C[C@]1(NC(=O)[C@@H]1C[C@@H](OC(=O)N2Cc3cccc(F)c3C2)CN1C(=O)[C@@H](Nc1cccc(S(=O)(=O)N2CCOCC2)c1)C(C)(C)C)C(=O)NS(=O)(=O)C1CC1` [Compound 10] had an EC50 in test [1] above 1000 nM. In test [2], this compound had an IC50 below 100 nM.

(Values after patent publication US20100119479A1, “THERAPEUTIC ANTIVIRAL PEPTIDES” (INTERMUNE, INC., priority 2008, published 2010).)
